Reference: ChEMBL document CHEMBL5550217, “Discovery of gem-Dimethyl-hydroxymethylpyridine Derivatives as Potent Non-nucleoside RSV Polymerase Inhibitors” (J Med Chem, 2024)
Activity calls are given as the source filed them. No cut-off for these calls is given here.

Legend:
Human orthopneumovirus [1] = assay: In vivo antiviral activity against Human respiratory syncytial virus (RSV) M37 infected in lamb model assessed as lung histopathology score at 1 to 4 mg/kg, po QD from 1 until 5 day post infection by H and E staining based assay; format: functional, organism-based; conditions: dose 1-4 mg/kg
[2] = Metabolic stability in rat hepatocytes assessed as intrinsic clearance per 10^6 cells at 1 uM measured upto 180 mins by LC-MS/MS analysis; format: ADME, cell-based, Hepatocyte; conditions: read-out: CLH
Human orthopneumovirus [3] = assay: In vivo antiviral activity against Human respiratory syncytial virus (RSV) M37 infected in lamb model assessed as reduction in gross lesions in lung at 1 to 4 mg/kg, po QD from 1 until 5 day post infection; format: functional, organism-based; conditions: dose 1-4 mg/kg
Human orthopneumovirus [4] = assay: In vivo antiviral activity against Human respiratory syncytial virus (RSV)-A2 intranasally infected in BALB/c mouse assessed as reduction in viral RNA level in lung treated orally QD 1 hr prior infection until 3 day post infection by qRT-PCR analysis; format: functional, organism-based; conditions: dose 1-100 mg/kg, route po
[5] = Clearance in Sprague-Dawley rat at 1.25 mg/kg, iv measured upto 24 hrs by LC-MS/MS analysis; format: ADME, organism-based; conditions: in vivo
[6] = Metabolic stability in human hepatocytes assessed as intrinsic clearance per 10^6 cells at 1 uM measured upto 180 mins by LC-MS/MS analysis; format: ADME, cell-based, Hepatocyte; conditions: read-out: CLH
[7] = Oral bioavailability in Balb/c mouse at 10 mg/kg measured upto 24 hrs by LC-MS/MS analysis; format: ADME, organism-based; conditions: in vivo
[8] = Volume of distribution at steady state in Sprague-Dawley rat at 1.25 mg/kg, iv measured upto 24 hrs by LC-MS/MS analysis; format: ADME, organism-based; conditions: in vivo, read-out: Vdss
[9] = Metabolic stability in mouse hepatocytes assessed as intrinsic clearance per 10^6 cells at 1 uM measured upto 180 mins by LC-MS/MS analysis; format: ADME, cell-based, Hepatocyte; conditions: read-out: CLH
[10] = Oral bioavailability in Beagle dog at 0.5 mg/kg measured upto 24 hrs by LC-MS/MS analysis; format: ADME, organism-based, Canis lupus familiaris; conditions: in vivo
[11] = Cmax in Balb/c mouse at 10 mg/kg, po measured upto 24 hrs by LC-MS/MS analysis; format: ADME, organism-based; conditions: in vivo
[12] = Clearance in Balb/c mouse at 2.5 mg/kg, iv measured upto 24 hrs by LC-MS/MS analysis; format: ADME, organism-based; conditions: in vivo
P-glycoprotein = assay: Efflux ratio of permeability in dog MDCK-MDR1 cells assessed as P-glycoprotein mediated efflux; format: ADME, cell-based, Canis lupus familiaris
[13] = Inhibition of RSV RNA polymerase assessed as RNA products using […] template by SPA primer extension enzymatic assay; design: species or system Respiratory syncytial virus
Human orthopneumovirus [14] = assay: In vivo antiviral activity against Human respiratory syncytial virus (RSV) M37 infected in lamb model assessed as reduction in viral RNA level in lung at 0.25 to 4 mg/kg, po QD from 1 until 5 day post infection by qRT-PCR analysis; format: functional, organism-based; conditions: dose 0.25-4 mg/kg
[15] = Plasma protein binding in human assessed as free fraction; format: ADME, cell-free
[16] = Volume of distribution at steady state in Beagle dog at 0.5 mg/kg, iv measured upto 24 hrs by LC-MS/MS analysis; format: ADME, organism-based, Canis lupus familiaris; conditions: in vivo, read-out: Vdss
[17] = Cmax in Beagle dog at 0.5 mg/kg, po measured upto 24 hrs by LC-MS/MS analysis; format: ADME, organism-based, Canis lupus familiaris; conditions: in vivo
[18] = Lipophilicity, logD of the compound; format: physicochemical; conditions: octanol/water
[19] = AUC (0 to last) in Balb/c mouse at 10 mg/kg, po measured upto 24 hrs by LC-MS/MS analysis; format: ADME, organism-based; conditions: in vivo
[20] = test system: Respiratory syncytial virus; assay: Antiviral activity against Respiratory syncytial virus (RSV)-A2-eGFP infected in human HeLa cells assessed as eGFP expression measured after 3 days by RSV Cell-based infection assay; format: functional, organism-based; conditions: 72 h
Human orthopneumovirus [21] = assay: In vivo antiviral activity against Human respiratory syncytial virus (RSV)-A2 intranasally infected in BALB/c mouse assessed as reduction in viral titer in lung treated orally QD 1 hr prior infection until 3 day post infection by plaque assay; format: functional, organism-based; conditions: dose 1-100 mg/kg, route po
Human orthopneumovirus [22] = assay: In vivo antiviral activity against Human respiratory syncytial virus (RSV) M37 infected in lamb model assessed as reduction in microscopic lesions in lung at 1 to 4 mg/kg, po QD from 1 until 5 day post infection; format: functional, organism-based; conditions: dose 1-4 mg/kg
[23] = Metabolic stability in dog hepatocytes assessed as intrinsic clearance per 10^6 cells at 1 uM measured upto 180 mins by LC-MS/MS analysis; format: ADME, cell-based, Canis lupus familiaris, Hepatocyte; conditions: read-out: CLH
[24] = AUC (0 to last) in Sprague-Dawley rat at 5 mg/kg, po measured upto 24 hrs by LC-MS/MS analysis; format: ADME, organism-based; conditions: in vivo
[25] = Clearance in Beagle dog at 0.5 mg/kg, iv measured upto 24 hrs by LC-MS/MS analysis; format: ADME, organism-based, Canis lupus familiaris; conditions: in vivo
[26] = Cmax in Sprague-Dawley rat at 5 mg/kg, po measured upto 24 hrs by LC-MS/MS analysis; format: ADME, organism-based; conditions: in vivo
Human orthopneumovirus [27] = assay: In vivo antiviral activity against Human respiratory syncytial virus (RSV) M37 infected in lamb model assessed as reduction in RSV cells in lung at 0.25 to 4 mg/kg, po QD from 1 until 5 day post infection by branched DNA technology (RNAscope); format: functional, organism-based; conditions: dose 0.25-4 mg/kg
[28] = Cytotoxicity against human HeLa cells measured after 3 days by ATPlite kit assay; format: toxicity, cell-based; conditions: time 3 day
Human orthopneumovirus [29] = assay: In vivo antiviral activity against Human respiratory syncytial virus (RSV) M37 infected in lamb model assessed as reduction in BALF peak viral titer in lung treated orally QD from 1 until 5 day post infection; format: functional, organism-based; conditions: dose 0.4-4 mg/kg, route po
[30] = Plasma protein binding in mouse assessed as free fraction; format: ADME, cell-free
[31] = Volume of distribution at steady state in Balb/c mouse at 2.5 mg/kg, iv measured upto 24 hrs by LC-MS/MS analysis; format: ADME, organism-based; conditions: in vivo, read-out: Vdss
[32] = Inhibition of human RSV-A strain Memphis 37 RNA polymerase; design: species or system Human respiratory syncytial virus A
Human orthopneumovirus [33] = assay: In vivo antiviral activity against Human respiratory syncytial virus (RSV) M37 infected in lamb model assessed as reduction in viral titer in lung treated orally QD from 1 until 5 day post infection; format: functional, organism-based; conditions: dose 0.4-4 mg/kg, route po
[34] = Half life in Sprague-Dawley rat at 1.25 mg/kg, iv measured upto 24 hrs by LC-MS/MS analysis; format: ADME, organism-based; conditions: in vivo
[35] = Half life in Balb/c mouse at 2.5 mg/kg, iv measured upto 24 hrs by LC-MS/MS analysis; format: ADME, organism-based; conditions: in vivo
[36] = Apparent permeability across apical to basolateral side in dog MDCK-MDR1 cells at 5 uM measured after 60 mins; format: ADME, cell-based, Canis lupus familiaris
[37] = Oral bioavailability in Sprague-Dawley rat at 5 mg/kg measured upto 24 hrs by LC-MS/MS analysis; format: ADME, organism-based; conditions: in vivo
[38] = Half life in Beagle dog at 0.5 mg/kg, iv measured upto 24 hrs by LC-MS/MS analysis; format: ADME, organism-based, Canis lupus familiaris; conditions: in vivo
[39] = Plasma protein binding in dog assessed as free fraction; format: ADME, cell-free, Canis lupus familiaris
[40] = test system: Respiratory syncytial virus; assay: Antiviral activity against Respiratory syncytial virus (RSV) infected in human APC-126 cells assessed as replicon by measuring protein adjusted effective concentration in the presence of 40% human serum measured after 3 days by Renilla Glo assay; format: functional, organism-based; conditions: 72 h
[41] = Ratio of drug concentration in Sprague-Dawley rat lung to plasma at 5 mg/kg, po measured upto 24 hrs by LC-MS/MS analysis; format: ADME, organism-based
[42] = Plasma protein binding in rat assessed as free fraction; format: ADME, cell-free
[43] = AUC (0 to last) in Beagle dog at 0.5 mg/kg, po measured upto 24 hrs by LC-MS/MS analysis; format: ADME, organism-based, Canis lupus familiaris; conditions: in vivo

## COc1cc(C(=O)NC[C@](O)(c2cc(C(C)(C)O)c(F)c(-c3ccc(F)cc3)n2)C(F)(F)F)cc2cc(C)nnc12
Human orthopneumovirus [1]
  Activity: Active
[2]
  hepatocyte CLint at 1 µM: 27 µL/min/1e6 cells
Human orthopneumovirus [3]
  Activity: Active
Human orthopneumovirus [4]
  Activity: Dose-Dependent Effect
[5]
  clearance: 8.03 mL/min/kg
[6]
  hepatocyte CLint at 1 µM: < 1.9 µL/min/1e6 cells
[7]
  bioavailability: 61%
[8]
  Vd: 1.04 L/kg
[9]
  hepatocyte CLint at 1 µM: 6.2 µL/min/1e6 cells
[10]
  bioavailability: 81%
[11]
  Cmax: 1730 ng/mL
[12]
  clearance: 10.6 mL/min/kg
P-glycoprotein
  efflux ratio: > 93
[13]
  IC50: 0.29 nM
Human orthopneumovirus [14]
  Activity: Active
[15]
  Fu: 0.66%
[16]
  Vd: 1.49 L/kg
[17]
  Cmax: 249 ng/mL
[18]
  logD: 3.55
[19]
  AUC(0-t) at 24 h: 9580 ng·h/mL
[20]
  EC50: 0.82 nM
Human orthopneumovirus [21]
  Activity: Dose-Dependent Effect
Human orthopneumovirus [22]
  Activity: Active
[23]
  hepatocyte CLint at 1 µM: 6.4 µL/min/1e6 cells
[24]
  AUC(0-t) at 24 h: 2100 ng·h/mL
[25]
  clearance: 5.62 mL/min/kg
[26]
  Cmax: 401 ng/mL
Human orthopneumovirus [27]
  Activity: Active
[28]
  CC50 at 72 h: 27700 nM
Human orthopneumovirus [29]
  Activity: Dose-Dependent Effect
[30]
  Fu: 0.45%
[31]
  Vd: 1.68 L/kg
[32]
  IC50: 0.3 nM
Human orthopneumovirus [33]
  Activity: Dose-Dependent Effect
[34]
  half-life: 3.15 h
[35]
  half-life: 1.95 h
[36]
  Papp A→B at 1 h, 5 µM: 9.8 ×10⁻⁶ cm/s
[37]
  bioavailability: 20%
[38]
  half-life: 4.25 h
[39]
  Fu: 0.87%
[40]
  EC50: 13 nM
[41]
  Kp at 24 h: 1
[42]
  Fu: 0.13%
[43]
  AUC(0-t) at 24 h: 1200 ng·h/mL
